Source: PMC4436593, “Endoplasmic reticulum stress-independent activation of unfolded protein response kinases by a small molecule ATP-mimic” (eLife, 2015)
Each block holds one molecule with its values, some of them ahead of it.

Tests used:
[1] = target: T1, GST-PERK kinase domain (580–1077 aa) (Mus musculus, UniProt Q9Z2B5); experiment: In vitro GST-PERK kinase assay (eIF2α phosphorylation with γ-[32P]-ATP)
T1 sequence (Q9Z2B5 580-1077): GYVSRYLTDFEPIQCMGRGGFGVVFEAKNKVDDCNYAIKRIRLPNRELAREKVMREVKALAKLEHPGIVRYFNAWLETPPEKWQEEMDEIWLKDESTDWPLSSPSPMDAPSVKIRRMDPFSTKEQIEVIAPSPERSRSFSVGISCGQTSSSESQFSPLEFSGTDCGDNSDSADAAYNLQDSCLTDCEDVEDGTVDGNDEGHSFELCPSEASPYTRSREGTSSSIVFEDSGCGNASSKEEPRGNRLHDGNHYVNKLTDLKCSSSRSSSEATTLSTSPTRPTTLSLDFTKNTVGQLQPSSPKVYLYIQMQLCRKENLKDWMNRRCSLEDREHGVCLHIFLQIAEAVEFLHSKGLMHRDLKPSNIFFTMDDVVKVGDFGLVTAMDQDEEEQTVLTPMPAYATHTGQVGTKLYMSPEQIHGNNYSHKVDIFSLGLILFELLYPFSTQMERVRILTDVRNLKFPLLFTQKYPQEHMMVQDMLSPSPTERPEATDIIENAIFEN

[2] = target: T2, IRE1α-KR43 (Homo sapiens, UniProt O75460); experiment: FRET-based RNA cleavage assay (fluorescent HP17 substrate) of IRE1α-KR43 RNase activity
[3] = target: T2, IRE1α-KR43; experiment: IRE1α-KR43 RNA cleavage assay with 5′ [32P]-labeled RNA substrate HP21 (kobs, single turnover); type: biochemical; set-up: IRE1α-KR43 comprises the soluble cytoplasmic portion of IRE1α, composed of the kinase and RNase domains plus 43 amino acids of the linker; 6xHis (N, cleaved yes); made in house; host or cells: SF21 insect cells; conditions: for fold activation of IRE1α-KR43 RNase activity / IRE1α RNase activation (in words): compounds 1 μM, IRE1α-KR43 200 nM; for fold activation of IRE1α-KR43 RNase activity: [32P]-labeled HP21; for IRE1α RNase activation (in words): versus DMSO control or cmp6/cmp7
Procedure: To this end, we modified the molecule by substituting urea-linked and variably m- and p-substituted phenyl groups for the benzimidazole of APY29. Diphenyl urea linkers have previously been used successfully in the design of kinase inhibitors ([Dar et al., 2008]; [Dar and Shokat, 2011]; [Korennykh et al., 2012]). In exploring the addition of this chemotype on the APY29 scaffold, we generated a panel of 10 variants (Figure 1B). Each member of the panel was tested in an RNase activity assay using recombinant IRE1α-KR43 and a labeled short hairpin RNA substrate derived from human XBP1 mRNA. IRE1α-KR43 comprises the soluble cytoplasmic portion of IRE1α, composed of the kinase and RNase domains plus 43 amino acids of the linker that bridges the kinase to its transmembrane domain.
Human IRE1α-KR43 with a hexa-histidine (6xHis) tag in its N-terminus was expressed and purified in SF21 cells as described ([Li et al., 2010]). Cells were lysed in buffer containing 20 mM Tris-HCl, pH 7.5, 600 mM NaCl, 2 mM MgCl2, 3 mM imidazole, 10% glycerol, 1% Triton X-100, 3 mM β-mercaptoethanol, COMPlete protease inhibitors (Roche), and PhosSTOP phosphatase inhibitor cocktail (Roche) and passed through an AVESTIN emulsiflex-C3 3× times for complete lysis. The lysate was cleared using centrifugation at 100,000×g. Clear lysate was allowed to incubate on Ni-NTA agarose (Qiagen) beads for 2 hr before being washed 3× times with buffer containing 20 mM Tris-HCl, pH7.5, 600 mM NaCl, 2 mM MgCl2, 30 mM imidazole, 10% glycerol, and 3 mM β-mercaptoethanol. Protein was eluted from the column by raising the imidazole concentration to 250 mM. The eluate was then passed through a HiTrap desalting column (GE Healthcare). Lastly, the 6xHis was cleaved as described ([Li et al., 2010]) and the resulting protein was then loaded onto a HisTrap HP, 5 × 5 ml column to remove the uncleaved protein. The cleaved protein was then loaded on a Mono-S 5/50 GL column (GE Healthcare), and the eluate was then concentrated to 5 mg/ml and loaded on a Superdex 200 HR 10/300 (GE Healthare) column in buffer containing 20 mM Tris-HCl pH 7.5, 250 mM NaCl, 5% Glycerol and 5 mM tris(2-carboxyethyl)phosphine (TCEP). The pure protein solution was aliquoted and stored at −80°C.

[4] = tested on: IRE1α-GFP in T-REx293 cells; experiment: IRE1-GFP foci formation in T-REx293 cells (confocal microscopy); type: cell-based; conditions: doxycycline-induced IRE1α-GFP
From the text: We next used a T-REx293 cell line, containing a genome-integrated doxycycline-inducible IRE1α-GFP fusion gene, to monitor IRE1α oligomerization in vivo ([Li et al., 2010]). In the presence of doxycycline, IRE1α-GFP was expressed and localized to the ER (Figure 2D). […] Furthermore, the foci dissolved by 8 hr of treatment as cells attenuated IRE1α signaling even in the presence of unmitigated ER stress (Figure 2D, upper panels) ([Li et al., 2010]). […] While Tm-induced foci became larger and fewer over time as previously observed, IPA-induced foci remained small and numerous.
T-REx293 cells were split 2 days before imaging onto glass-bottom micro-well dishes (MatTek) at 5 × 10^4 cells/dish. Doxycyclin-containing medium (10 nM doxycycline) was added for 24 hr, withdrawn before imaging and replaced with imaging media (Hank's Balanced Salt Solution [Gibco], 2% FBS, and 5 mM HEPES pH 7.0). Images were acquired on a spinning-disk confocal microscope as described ([Li et al., 2010]).

[5] = tested on: ATF6 transcriptional targets HERPUD1 (HERP1) and DERLIN3 (DERL3); experiment: ATF6 target mRNAs HERP1 and DERL3 by RT-PCR in HEK293T cells; type: cell-based; conditions: IPA 1 μM and 4 μM, Tm
From the text: To assess the effects of IPA on the activity of the two other UPR branches, we first examined activation of ATF6. To this end, we monitored mRNA levels by RT-PCR for two ATF6-driven transcriptional target genes, HERP1 and DERL3, in HEK293T cells.
Cells were lysed and total RNA was collected (Total RNA Kit 1, EZ-RNA, EZNA [USA]). PolyA^+ mRNA was reverse transcribed with M-MLV (Invitrogen), and the resulting cDNA was used as a template for PCR amplification across the fragment of XBP1 cDNA containing the intron. Primers used to amplify human XBP1: 5′-[…]-3′ and 5′-[…]-3′. To amplify murine XBP1: 5′-[…]-3′ and 5′-[…]-3′. PCR conditions were as follows: 95°C for 5 min, 95°C for 1 min, 58°C for 30 s, 72°C for 30 s, and 72°C for 5 min, with 20 cycles of amplification. PCR products were resolved on a 2.5% agarose tris-acetate EDTA (TAE) gel. As previously reported, a hybrid amplicon species consisting of unspliced Xbp-1 annealed to spliced Xbp-1 can also be produced through this PCR reaction and was visible as a slower migrating band above the unspliced amplicon. The same cDNA was used as template for PCR of DERLIN-3 and HERPUD1, both ATF6 targets, and GAPDH, which was used as loading control. Primers used included the following: DERLIN-3, 5′-[…]-3′ and 5′-[…]-3′; HERPUD1-1, 5′-[…]-3′ and 5′-[…]-3′; GAPDH, 5′-[…]-3′ and 5′-[…]-3′. […]

[6] = tested on: HEK293T cells; experiment: HEK293T cell viability (CellTiter-Blue, 24 hr); type: cell-based; conditions: STS dose response + 1 μM GSK PERK inhibitor
Procedure: HEK293T cells were grown in DMEM (Sigma) complete media containing 10% FBS, 10 units/ml penicillin (Invitrogen), and 10 μg/ml streptomycin (Invitrogen). Cells were plated at a density of 30,000 cells per well in 96-well black plates with clear flat bottoms (Corning, Sigma-Aldrich) 24 hr before the experiment. A 12-point semi-logarithmic dilution series of compounds was made starting at 30 μM not to exceed 0.1% DMSO after final dilution into the growth media. Viability assays were conducted over the course of 24 hr. Cell viability was determined using CellTiter-Blue (Promega) following the manufacturer's instructions. […] Experiments were done in triplicate, and mean values were computed for each data point.

[7] = target: the molecule itself; experiment: cell-based or functional assay
[8] = target: the molecule itself; experiment: SEC; GST-PERK purified on GST-Sepharose and Superdex 200 10/300 gel filtration in buffer B (50 mM Tris pH 7.5, 50 mM NaCl, 5 mM MgCl2, 3 mM DTT, 1% glycerol); the paper does not say how the dimer was determined
[9] = compound 20 μM, RNase activity as a function of IRE1α-KR43 concentration

T2 sequence (O75460 465-977 limits assumed): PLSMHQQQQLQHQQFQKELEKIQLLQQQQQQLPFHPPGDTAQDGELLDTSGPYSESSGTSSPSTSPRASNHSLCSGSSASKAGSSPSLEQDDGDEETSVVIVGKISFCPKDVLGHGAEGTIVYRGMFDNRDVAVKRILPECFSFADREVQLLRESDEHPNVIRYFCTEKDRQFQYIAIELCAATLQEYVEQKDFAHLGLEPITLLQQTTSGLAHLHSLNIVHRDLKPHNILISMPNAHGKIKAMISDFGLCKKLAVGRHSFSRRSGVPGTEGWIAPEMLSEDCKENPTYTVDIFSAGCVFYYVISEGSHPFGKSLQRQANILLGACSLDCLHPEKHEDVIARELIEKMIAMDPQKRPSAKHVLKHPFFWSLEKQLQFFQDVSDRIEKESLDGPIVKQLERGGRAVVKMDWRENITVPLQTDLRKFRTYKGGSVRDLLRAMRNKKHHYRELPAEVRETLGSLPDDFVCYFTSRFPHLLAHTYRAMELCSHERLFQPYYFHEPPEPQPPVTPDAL

Molecule: c1cc(Nc2cc(C3CC3)[nH]n2)nc(Nc2ccc3[nH]cnc3c2)n1 [APY29, reference compound]
- IC50 [1]: 690 nM
- EC50 [2]: 5200 nM
- fold activation of IRE1α-KR43 RNase activity [3]: fivefold

Molecule: COc1cccc(NC(=O)Nc2ccc(Nc3nccc(Nc4cc(C5CC5)[nH]n4)n3)cc2)c1 [cmp4]
- fold activation of IRE1α-KR43 RNase activity [3]: 10–100 fold

Molecule: COc1ccc(NC(=O)Nc2ccc(Nc3nccc(Nc4cc(C5CC5)[nH]n4)n3)cc2)cc1 [cmp5]
- fold activation of IRE1α-KR43 RNase activity [3]: 10–100 fold

Molecule: tunicamycin [Tm, reference compound]
- IRE1α-GFP foci formation [4]: rapidly induced the relocalization of IRE1α-GFP into discrete foci
- induction of ATF6 target genes HERP1 and DERL3 [5]: induced the expression of these two genes

Molecule: CCc1ccc(NC(=O)Nc2ccc(Nc3nccc(Nc4cc(C5CC5)[nH]n4)n3)cc2)cc1 [cmp3]
- fold activation of IRE1α-KR43 RNase activity [3]: 10–100 fold

Molecule: O=C(Nc1ccc(Nc2nccc(Nc3cc(C4CC4)[nH]n3)n2)cc1)Nc1cccc(C(F)(F)F)c1 [cmp1]
- IC50 [1]: 4500 nM
- EC50 [2]: 950 nM
- fold lower enzyme concentration at ½ kmax, obs versus no activator ([3]; compound 20 μM): 3 fold
- 1/2kmax, obs (IRE1α-KR43 concentration at half-maximal kobs) [3, 9]: 3 µM
- Hill coefficient n [3, 9]: 3.8
- fold activation of IRE1α-KR43 RNase activity [3]: 10–100 fold

Molecule: CN[C@@H]1C[C@H]2O[C@@](C)([C@@H]1OC)n1c3ccccc3c3c4c(c5c6ccccc6n2c5c31)C(=O)NC4 [STS, staurosporine, reference compound]
- change of cell viability dose response in the presence of 1 μM GSK [6]: No change in cell viability was observed

B1: PERK cytosolic domain (535–1093 Δ660–868) (domain or fragment, human, UniProt Q9NZJ5 535-1093, looked up)
chain: ATTFIVRRLFHPHPHRQRKESETQCQTENKYDSVSGEANDSSWNDIKNSGYISRYLTDFEPIQCLGRGGFGVVFEAKNKVDDCNYAIKRIRLPNRELAREKVMREVKALAKLEHPGIVRYFNAWLKNTTEKLQPSSPKVYLYIQMQLCRKENLKDWMNGRCTIEERERSVCLHIFLQIAEAVEFLHSKGLMHRDLKPSNIFFTMDDVVKVGDFGLVTAMDQDEEEQTVLTPMPAYARHTGQVGTKLYMSPEQIHGNSYSHKVDIFSLGLILFELLYPFSTQMERVRTLTDVRNLKFPPLFTQKYPCEYVMVQDMLSPSPMERPEAINIIENAVFEDLDFPGKTVLRQRSR
- rate of eIF2α phosphorylation by the PERK cytoplasmic domain against IPA concentration, fold change normalised to DMSO control; greatest activation at 500 nM IPA [7]: 3.3 fold

B2: GST-PERK kinase domain (580–1077 aa) (domain or fragment, murine, UniProt Q9Z2B5 580-1077, looked up)
chain: GYVSRYLTDFEPIQCMGRGGFGVVFEAKNKVDDCNYAIKRIRLPNRELAREKVMREVKALAKLEHPGIVRYFNAWLETPPEKWQEEMDEIWLKDESTDWPLSSPSPMDAPSVKIRRMDPFSTKEQIEVIAPSPERSRSFSVGISCGQTSSSESQFSPLEFSGTDCGDNSDSADAAYNLQDSCLTDCEDVEDGTVDGNDEGHSFELCPSEASPYTRSREGTSSSIVFEDSGCGNASSKEEPRGNRLHDGNHYVNKLTDLKCSSSRSSSEATTLSTSPTRPTTLSLDFTKNTVGQLQPSSPKVYLYIQMQLCRKENLKDWMNRRCSLEDREHGVCLHIFLQIAEAVEFLHSKGLMHRDLKPSNIFFTMDDVVKVGDFGLVTAMDQDEEEQTVLTPMPAYATHTGQVGTKLYMSPEQIHGNNYSHKVDIFSLGLILFELLYPFSTQMERVRILTDVRNLKFPLLFTQKYPQEHMMVQDMLSPSPTERPEATDIIENAIFEN
notes: PERK, murine, cytosolic kinase domain, residues 580–1077; The dimer may therefore be held by GST; also called PERK-GST fusion protein; GST-PERK fusion protein; source: E. coli BL21DE3 RIPL, purified (GST-Sepharose, Superdex 200 10/300); not shown: GST, N-terminal, kept
- stoichiometry N [8]: 2

More lines, now with the values ahead:

- IRE1α RNase activation (in words) [3]: decreased activities
Molecule: CC(C)c1ccc(NC(=O)Nc2ccc(Nc3nccc(Nc4cc(C5CC5)[nH]n4)n3)cc2)cc1 [cmp9]

- fold activation of IRE1α-KR43 RNase activity [3]: 900 fold
Molecule: O=C(Nc1ccc(I)cc1)Nc1ccc(Nc2nccc(Nc3cc(C4CC4)[nH]n3)n2)cc1 [cmp7]

- IRE1α RNase activation (in words) [3]: decreased activities
Molecule: O=C(Nc1ccc(Br)cc1)Nc1ccc(Nc2nccc(Nc3cc(C4CC4)[nH]n3)n2)cc1 [cmp8]

- IRE1α RNase activation (in words) [3]: decreased activities
Molecule: CC(C)(C)c1ccc(NC(=O)Nc2ccc(Nc3nccc(Nc4cc(C5CC5)[nH]n4)n3)cc2)cc1 [cmp10]

- fold activation of IRE1α-KR43 RNase activity [3]: 10–100 fold
Molecule: Cc1ccc(NC(=O)Nc2ccc(Nc3nccc(Nc4cc(C5CC5)[nH]n4)n3)cc2)cc1 [cmp2]
